Earlier results in patent publication US20220008494A1, “COMPOSITION FOR USE IN THE PREVENTION AND/OR SYMPTOMATIC TREATMENT OF IRRITABLE BOWEL SYNDROME” (priority 2018, published 2022).

Legend:
[1] = tested on: carrageenan-induced edema; conditions: 10 mg/kg p.o.; from 1 to 24 h (p<0.01) compared to the control
[2] = tested on: tail withdrawal reaction time; conditions: rat, in vivo
IBS patients = conditions: 300 mg per day as adjunct to standard therapies
[3] = 1 g/day butyric acid and inulin for 1 month, IBS-D compared to IBS-C patients

In the case of `O=C(O)Cc1ccccc1Nc1c(Cl)cccc1Cl` [Diclofenac, Diclofenac sodium], the “edema (paw volume, plethysmometrically)” value [1] is listed as “significant decrease”.
For `CC(C)=CCN1CCC2(C)c3cc(O)ccc3CC1C2C` (stereo not shown) [Pentazocine], the “reaction time (tail withdrawal)” value [2] is given as “significant increase”.
In the case of `CCCC(=O)O` [butyric acid], the “frequency of abdominal pain associated with defecation” value (IBS patients; fourth week of treatment) is listed as “significant decrease”, the defecation-associated pain (IBS patients; twelfth week) is listed as “also decrease” and the post-defecation stimulus (IBS patients; twelfth week) is listed as “also decrease”. For the same compound, the post-prandial abdominal pain (IBS patients; twelfth week) was “also decrease”, the spontaneous abdominal pain (IBS patients; twelfth week) was “also decrease” and the “condition of IBS-D patients” value (IBS-D patients; 1 g/day butyric acid (4 x 250 mg capsules) and inulin for 1 month) was “normalization”. The “frequency of diarrhea episodes” value (IBS-D patients; [3]) was “significant reduction” and the stool consistency (IBS-D patients; [3]) was “significant increase”.
